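These data come from cells grown in 96-well plates and exposed to compound for 48 hours at five concentrations. TGI is the concentration that stops growth completely.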
Legend:
Assay in all cases: NCI anticancer screen, dose series, 48 h
MOLT-4 leukemia = tested on: MOLT-4 leukemia
SK-MEL-28 melanoma = tested on: SK-MEL-28 melanoma
MCF7 breast = tested on: MCF7 breast
RPMI-8226 leukemia = tested on: RPMI-8226 leukemia
HOP-92 NSCLC = tested on: HOP-92 NSCLC
HCC-2998 colon = tested on: HCC-2998 colon
MDA-MB-435 = tested on: MDA-MB-435
LOX IMVI melanoma = tested on: LOX IMVI melanoma
UO-31 renal = tested on: UO-31 renal
SF-268 CNS = tested on: SF-268 CNS
M14 melanoma = tested on: M14 melanoma
CCRF-CEM leukemia = tested on: CCRF-CEM leukemia
CAKI-1 renal = tested on: CAKI-1 renal
SF-295 CNS = tested on: SF-295 CNS
HT29 colon = tested on: HT29 colon
NCI-H522 lung = tested on: NCI-H522 lung
COLO 205 colon = tested on: COLO 205 colon
786-0 renal = tested on: 786-0 renal
SNB-19 CNS = tested on: SNB-19 CNS
HOP-62 NSCLC = tested on: HOP-62 NSCLC
DU-145 prostate = tested on: DU-145 prostate
SF-539 CNS = tested on: SF-539 CNS
KM12 colon = tested on: KM12 colon
RXF 393 renal = tested on: RXF 393 renal
SW-620 colon = tested on: SW-620 colon
MDA-MB-231 breast = tested on: MDA-MB-231 breast
A549 NSCLC = tested on: A549 NSCLC
NCI/ADR-RES ovarian = tested on: NCI/ADR-RES ovarian
UACC-62 melanoma = tested on: UACC-62 melanoma
UACC-257 melanoma = tested on: UACC-257 melanoma
SNB-75 CNS = tested on: SNB-75 CNS
T-47D breast = tested on: T-47D breast
HL-60(TB) leukemia = tested on: HL-60(TB) leukemia
NCI-H226 lung = tested on: NCI-H226 lung
MALME-3M melanoma = tested on: MALME-3M melanoma
HS 578T breast = tested on: HS 578T breast
OVCAR-5 ovarian = tested on: OVCAR-5 ovarian
HCT-15 colon = tested on: HCT-15 colon
OVCAR-8 ovarian = tested on: OVCAR-8 ovarian
U251 CNS = tested on: U251 CNS
MDA-N = tested on: MDA-N
PC-3 prostate = tested on: PC-3 prostate
SN12C renal = tested on: SN12C renal
SR leukemia = tested on: SR leukemia
TK-10 renal = tested on: TK-10 renal
IGROV1 ovarian = tested on: IGROV1 ovarian
K-562 leukemia = tested on: K-562 leukemia
NCI-H460 lung = tested on: NCI-H460 lung
SK-MEL-2 melanoma = tested on: SK-MEL-2 melanoma
BT-549 breast = tested on: BT-549 breast
OVCAR-3 ovarian = tested on: OVCAR-3 ovarian
ACHN renal = tested on: ACHN renal
SK-OV-3 ovarian = tested on: SK-OV-3 ovarian
OVCAR-4 ovarian = tested on: OVCAR-4 ovarian
EKVX NSCLC = tested on: EKVX NSCLC
NCI-H23 lung = tested on: NCI-H23 lung
SK-MEL-5 melanoma = tested on: SK-MEL-5 melanoma
HCT-116 colon = tested on: HCT-116 colon
A498 renal = tested on: A498 renal

Q: With `CC1=NN(c2nc(N)nc(C(C#N)C(=O)c3cc4c(cc3Cl)Sc3nccn3S4(=O)=O)n2)C(C)(C)C1` (stereo not drawn) as the compound, how does the TGI (MOLT-4 leukemia) read?
A: 68.2 µM

Q: What about the TGI (SK-MEL-28 melanoma) of the same compound?
A: > 100 µM

Q: And the TGI (MCF7 breast)?
A: > 100 µM

Q: And the TGI (RPMI-8226 leukemia)?
A: 63.2 µM

Q: And the TGI (HOP-92 NSCLC)?
A: > 100 µM

Q: What about the TGI (HCC-2998 colon) of the same compound?
A: 33.8 µM

Q: What about the TGI (MDA-MB-435) of the same compound?
A: > 100 µM

Q: What about the TGI (LOX IMVI melanoma) of the same compound?
A: > 100 µM

Q: What about the TGI (UO-31 renal) of the same compound?
A: 67.2 µM

Q: And the TGI (SF-268 CNS)?
A: > 100 µM

Q: And the TGI (M14 melanoma)?
A: > 100 µM

Q: And the TGI (CCRF-CEM leukemia)?
A: 50.3 µM

Q: What about the TGI (CAKI-1 renal) of the same compound?
A: > 100 µM

Q: And the TGI (SF-295 CNS)?
A: > 100 µM

Q: What about the TGI (HT29 colon) of the same compound?
A: > 100 µM

Q: And the TGI (NCI-H522 lung)?
A: 69.7 µM

Q: And the TGI (COLO 205 colon)?
A: > 100 µM

Q: And the TGI (786-0 renal)?
A: 34 µM

Q: What about the TGI (SNB-19 CNS) of the same compound?
A: > 100 µM

Q: What about the TGI (HOP-62 NSCLC) of the same compound?
A: > 100 µM

Q: What about the TGI (DU-145 prostate) of the same compound?
A: 94.4 µM

Q: What about the TGI (SF-539 CNS) of the same compound?
A: > 100 µM

Q: And the TGI (KM12 colon)?
A: > 100 µM

Q: And the TGI (RXF 393 renal)?
A: > 100 µM

Q: And the TGI (SW-620 colon)?
A: > 100 µM

Q: What about the TGI (MDA-MB-231 breast) of the same compound?
A: 55 µM

Q: What about the TGI (A549 NSCLC) of the same compound?
A: > 100 µM

Q: What about the TGI (NCI/ADR-RES ovarian) of the same compound?
A: > 100 µM

Q: What about the TGI (UACC-62 melanoma) of the same compound?
A: 66.9 µM

Q: What about the TGI (UACC-257 melanoma) of the same compound?
A: 48.5 µM

Q: And the TGI (SNB-75 CNS)?
A: > 100 µM

Q: What about the TGI (T-47D breast) of the same compound?
A: 77.9 µM

Q: And the TGI (HL-60(TB) leukemia)?
A: 61.1 µM

Q: What about the TGI (NCI-H226 lung) of the same compound?
A: 90 µM

Q: And the TGI (MALME-3M melanoma)?
A: 48.5 µM

Q: What about the TGI (HS 578T breast) of the same compound?
A: > 100 µM

Q: And the TGI (OVCAR-5 ovarian)?
A: > 100 µM

Q: And the TGI (HCT-15 colon)?
A: 67.3 µM

Q: And the TGI (OVCAR-8 ovarian)?
A: > 100 µM

Q: And the TGI (U251 CNS)?
A: > 100 µM

Q: What about the TGI (MDA-N) of the same compound?
A: > 100 µM

Q: And the TGI (PC-3 prostate)?
A: > 100 µM

Q: What about the TGI (SN12C renal) of the same compound?
A: > 100 µM

Q: What about the TGI (SR leukemia) of the same compound?
A: 25 µM

Q: And the TGI (TK-10 renal)?
A: > 100 µM

Q: What about the TGI (IGROV1 ovarian) of the same compound?
A: > 100 µM

Q: What about the TGI (K-562 leukemia) of the same compound?
A: > 100 µM

Q: And the TGI (NCI-H460 lung)?
A: > 100 µM

Q: And the TGI (SK-MEL-2 melanoma)?
A: 53.7 µM

Q: What about the TGI (BT-549 breast) of the same compound?
A: 98.6 µM

Q: What about the TGI (OVCAR-3 ovarian) of the same compound?
A: 57 µM

Q: What about the TGI (ACHN renal) of the same compound?
A: > 100 µM

Q: And the TGI (SK-OV-3 ovarian)?
A: 51.4 µM

Q: And the TGI (OVCAR-4 ovarian)?
A: > 100 µM

Q: And the TGI (EKVX NSCLC)?
A: > 100 µM

Q: And the TGI (NCI-H23 lung)?
A: 37.2 µM

Q: What about the TGI (SK-MEL-5 melanoma) of the same compound?
A: 48.1 µM

Q: What about the TGI (HCT-116 colon) of the same compound?
A: > 100 µM

Q: What about the TGI (A498 renal) of the same compound?
A: > 100 µM

Q: Which results are given for `COc1ccc(/C=N/c2nc3cc4sc(/N=C/c5ccc(OC)cc5)nc4cc3s2)cc1`?
A: TGI (MOLT-4 leukemia): > 100 µM; TGI (SK-MEL-28 melanoma): > 100 µM; TGI (MCF7 breast): > 88.9 µM; TGI (RPMI-8226 leukemia): > 100 µM; TGI (HOP-92 NSCLC): > 100 µM; TGI (HCC-2998 colon): 71.4 µM; TGI (MDA-MB-435): 99.5 µM; TGI (LOX IMVI melanoma): > 100 µM; TGI (UO-31 renal): > 100 µM; TGI (SF-268 CNS): > 100 µM; TGI (M14 melanoma): > 100 µM; TGI (CCRF-CEM leukemia): > 45.2 µM; TGI (CAKI-1 renal): > 100 µM; TGI (SF-295 CNS): > 100 µM; TGI (HT29 colon): > 100 µM; TGI (NCI-H522 lung): > 52.7 µM; TGI (COLO 205 colon): > 22.4 µM; TGI (786-0 renal): > 100 µM; TGI (SNB-19 CNS): > 100 µM; TGI (HOP-62 NSCLC): > 100 µM; TGI (DU-145 prostate): > 100 µM; TGI (SF-539 CNS): > 100 µM; TGI (KM12 colon): > 100 µM; TGI (RXF 393 renal): > 100 µM; TGI (SW-620 colon): > 100 µM; TGI (MDA-MB-231 breast): > 100 µM; TGI (A549 NSCLC): > 100 µM; TGI (NCI/ADR-RES ovarian): > 100 µM; TGI (UACC-62 melanoma): > 100 µM; TGI (UACC-257 melanoma): > 100 µM; TGI (SNB-75 CNS): > 100 µM; TGI (T-47D breast): > 100 µM; TGI (HL-60(TB) leukemia): > 100 µM; TGI (NCI-H226 lung): > 77.8 µM; TGI (MALME-3M melanoma): > 100 µM; TGI (HS 578T breast): > 81.8 µM; TGI (OVCAR-5 ovarian): > 100 µM; TGI (HCT-15 colon): > 100 µM; TGI (OVCAR-8 ovarian): > 100 µM; TGI (U251 CNS): > 100 µM; TGI (MDA-N): > 100 µM; TGI (PC-3 prostate): > 100 µM; TGI (SN12C renal): > 100 µM; TGI (SR leukemia): > 100 µM; TGI (TK-10 renal): > 94.8 µM; TGI (IGROV1 ovarian): > 100 µM; TGI (K-562 leukemia): > 100 µM; TGI (NCI-H460 lung): > 100 µM; TGI (SK-MEL-2 melanoma): > 100 µM; TGI (BT-549 breast): > 100 µM; TGI (OVCAR-3 ovarian): > 100 µM; TGI (ACHN renal): > 100 µM; TGI (SK-OV-3 ovarian): > 100 µM; TGI (OVCAR-4 ovarian): > 100 µM; TGI (EKVX NSCLC): > 100 µM; TGI (NCI-H23 lung): 97.7 µM; TGI (SK-MEL-5 melanoma): > 100 µM; TGI (HCT-116 colon): > 100 µM; TGI (A498 renal): > 100 µM

From PubChem BioAssay (NCI)
